# Results: patent US8940324B2, “Octenidine composition” (Artan Holding AG, priority 2008, dated 2015)
# “Also recorded” adds a separate entry of the source.
# Key:
# U373 cells = test: Determination of cell adhesion (cell detachment assay with Methyl violet); format: cell-based, human; settings: for effect on cell adhesion; additives: effect on the Octenisept® induced reduction: U373, 1 hour, Octenisept® alone or 1:1 with additive 5%, 5 μl to 100 μl medium, FIG. 3
# Experimental: The humane glioblastoma cell line U373 was cultured in Dulbecco's Modified Eagle Medium (DMEM) supplemented with 10% PCS (Gibco™), 2 mM glutamine (PPA) and 100 U/ml penicillin/streptomycin (PAA) at 37° and 5% CO2. The cells were cultivated in monolayer and passaged at 80% confluence. Before carrying out the cell adhesion experiments the cells were transferred onto 96-well plates and brought to confluence.
# Cell adhesion was carried out as described in detail in the quotation (Uchide, N. and Toyoda H., (2007) J Immunol Methods, 328 (1-2): 215-9). U373 cells were incubated in 96-well plates with Octenisept® (final concentration 5% (v/v) Octenisept®, this equates 0.005% octenidine dihydrochloride) alone or with the specified additives (5% v/v) for 1 hour in glucose-free Leibovitz medium. After removing the supernatant the standardized washing procedure was executed 3 times after which PBS was added with a motor-controlled pipet which led to the detachment of non-adhesive cells. Afterward only those cells whose matrix had formed a solid connection were fixed with glutaraldehyde and after removal of the glutaraldehyde stained with Methyl violet. The precipitated stain was dissolved with an SDS buffer and the extinction was measured at 550 nm in an ELISA plate reader.
# It was now examined whether this additive ensures effects which can contribute to the improvement of wound healing. U373 cells were incubated for 1 hour in Leibovitz medium with Octenisept® alone or with additives (1:1 with glucose 5% or NaCl 0.9%). In each case 5 μl of the respective solution was added to 100 μl of medium. After washing and staining of the adherent cells with crystal violet the extinction was measured at 550 nm (FIG. 2a). The extinction of the controls was set to 1. Statistical significances were determined with Bonferroni's Multiple Comparison Test (**: p<0.01, ***<0.001).
# Polyalcohols form a broad compound class and it was therefore examined whether single subgroups have different effects in the adhesion test. U373 cells were incubated in Leibovitz medium with 5 μl additive to 100 μl medium in each case for 1 hour with Octenisept® alone (−) or with additives (1:1 with polyalcohol 5%, glucose, 2-deoxyglucose (2-deoxyG.), lactose, saccharose, fructose, glucuronic acid, polyethylene glycol (PEG), chondroitin-4-sulfate (ch.4-s.), chondroitin-6-sulfate (ch.-6-s.) dermatan sulfate (dermatan-s.) or dextran sulfate (dextran-s.)). After washing and staining of the adherent cells with Methyl violet the extinction was measured at 550 nm. (Bars represent the mean value±SD of two independent experiments (measured in triplicates)). The extinction of the controls was set to 1. Statistical significances were determined with Bonferroni's Multiple Comparison Test (**: p<0.01, ***<0.001).
# U373 cells were incubated for one hour with Octenisept® (1:20 in medium) alone (G0) or with Octenisept® and different volumes of a 5% glucose solution (resulting final dilution 1:200-1:2 in Leibovitz medium).
# [1] = Precipitation assay of Octenisept® with NaCl or carbohydrates; format: physicochemical; settings: equal parts Octenisept® and diluent (5%), 4° C.
# Experimental: The stability of the solubility of the components of Octenisept® in NaCl solution as an indicator for their interaction was determined through the analysis of the precipitates. After the co-incubation of Octenisept® with equal parts of 0.9% w/v NaCl or 5% carbohydrates in sterile aqua bidest for 3, 12, 24 and 72 hours at 4° C. the solutions were centrifuged at 2500 rpm for 5 minutes and the precipitate, if existing, was analyzed with the Zeiss inverted microscope with a digital camera with the METAVIEW micro-photography documentation system.
# [2] = concentration series with glucose, FIG. 4
Molecule,effect on cell adhesion; additives: effect on the Octenisept® induced reduction (U373 cells),other results
O=CC[C@@H](O)[C@H](O)[C@H](O)CO [2-deoxyglucose],improved,
O=C(CO)[C@@H](O)[C@H](O)[C@H](O)CO [fructose],improved,
O=C[C@H](O)[C@@H](O)[C@H](O)[C@H](O)CO [glucose],improved,"effect of glucose addition on Octenisept® reduced cell adherence (U373 cells; 5% glucose solution, final dilution 1:200 or 1:100, FIG. 4): tendentially improved; optimal glucose addition, final concentration (U373 cells; [2]): 0.1%; optimal glucose addition, in the stock solution (U373 cells; [2]): 2%; optimal absolute glucose in the Octenisept solution (U373 cells; corresponds to dilution 1:20 of 5% glucose): 0.25%"
O=C[C@H](O)[C@@H](O)[C@H](O)[C@H](O)C(=O)O [glucuronic acid],improved,effect on cell adhesion; additives: effect on the Octenisept® induced reduction (U373 cells; listed as Glucuronic acid): positive effect
OC[C@H]1O[C@@H](O[C@H]2[C@H](O)[C@@H](O)C(O)O[C@@H]2CO)[C@H](O)[C@@H](O)[C@H]1O (some centres unmarked) [lactose],improved,
OC[C@H]1O[C@@](CO)(O[C@H]2O[C@H](CO)[C@@H](O)[C@H](O)[C@H]2O)[C@@H](O)[C@@H]1O [saccharose],improved; also recorded: without impairing the effect,
chondroitin sulfate,,sediment / crystals / turbidity of Octenisept® mixed with diluent [1]: quick micro-crystalline or colloidal turbidity
chondroitin-4-sulfate,significantly reduced the adhesion to under the values of NaCl,
chondroitin-6-sulfate,significantly reduced the adhesion to under the values of NaCl,
dermatan sulfate,significantly reduced the adhesion to under the values of NaCl,sediment / crystals / turbidity of Octenisept® mixed with diluent [1]: quick micro-crystalline or colloidal turbidity
dextran sulfate,significantly reduced the adhesion to under the values of NaCl,
heparan sulfate,,sediment / crystals / turbidity of Octenisept® mixed with diluent [1]: quick micro-crystalline or colloidal turbidity
polyethylene glycol,improved,effect on cell adhesion; additives: effect on the Octenisept® induced reduction (U373 cells; listed as PEG): slight reduction of the positive effect
